In US10830746B2, “Quantitation of Tamoxifen and metabolites thereof by mass spectrometry” (QUEST DIAGNOSTICS INVESTMENTS INCORPORATED, priority 2014, dated 2020):

Test: Quantitation of tamoxifen and its metabolites in patient serum by LC-MS/MS
Method: In the following procedure, tamoxifen and its metabolites are extracted from serum. The serum is added to a filter plate, and then mixed with acetonitrile/IS, which then forms a precipitate. The mixture is then placed on a positive pressure manifold, and the organic fraction is passed through to a collection plate. The plate is lidded, and then placed on the Cohesive system for injection onto MS/MS. The MS is in APCI-positive mode. The quantitation is based upon unique parent-product transitions. Those analytes with similar transitions were separated chromatographically.
A 12-point calibration is used for each analyte. Initially, only one standard is made (Std-12), with a series of dilutions performed to generate the remaining standards. The standard (#12) is to be removed from the −70° C. freezer and thawed. While thawing, label twelve 12×75 mm tubes.
Add 3.0 mL of std-12 to tube 12. From this standard, you will follow the table below to create the standard curve. A standard curve is to be generated with each assay. Place the initial standard back in the −60 to −90° C. freezer.
A Thermo LC/MS/MS system containing the following modules was used for this assay:
The extraction is a protein precipitation, followed by filtration. Analysis and quantitation is then performed by LC/MS/MS.
Norendoxifen is extracted from serum using protein precipitation, followed by filtration. Analysis and quantitation is then performed by LC/MS/MS.

Compound | Reference Ranges (human, in vivo) | Reference Ranges (expected values in serum)
4-Hydroxy Tamoxifen | 0.24 to 5.05 ng/mL | 
CC/C(=C(\c1ccccc1)c1ccc(OCCN(C)C)cc1)c1ccc(O)cc1 [4′-Hydroxy Tamoxifen] | 0.4 to 6.33 ng/mL | 
Tamoxifen |  | 12.54 to 233.07 ng/mL

Second part, led by results:

Reference Ranges (human, in vivo) | Compound | Reference Ranges (expected values in serum)
2.59 to 373.96 ng/mL | CC/C(=C(\c1ccccc1)c1ccc(OCCNC)cc1)c1ccccc1 [N-Desmethyl Tamoxifen] | 
0.93 to 43.19 ng/mL | CC/C(=C(\c1ccc(O)cc1)c1ccc(OCCNC)cc1)c1ccccc1 [N-Desmethyl-4-Hydroxy Tamoxifen] | 
1.17 to 19.95 ng/mL | CCC(=C(c1ccccc1)c1ccc(OCCNC)cc1)c1ccc(O)cc1 [N-Desmethyl-4′-Hydroxy Tamoxifen] | 
